Test results: ChEMBL document CHEMBL5696441 (Nat Chem Biol, 2011)
pIC50: −log10 of the molar value.

Assays:
[1] = biological target: Dual specificity tyrosine-phosphorylation-regulated kinase 1B (Homo sapiens) (UniProt Q9Y463); experiment: Inhibition of DYRK1B (unknown origin) assessed as remaining activity at 1 uM by Kinome scan method relative to control
[2] = biological target: Ephrin type-A receptor 7 (Homo sapiens) (UniProt Q15375); experiment: Inhibition of EPHA7 (unknown origin) assessed as remaining activity at 1 uM by Kinome scan method relative to control
Ephrin type-A receptor 7 (Homo sapiens), sequence (Q15375 28-998 limits assumed): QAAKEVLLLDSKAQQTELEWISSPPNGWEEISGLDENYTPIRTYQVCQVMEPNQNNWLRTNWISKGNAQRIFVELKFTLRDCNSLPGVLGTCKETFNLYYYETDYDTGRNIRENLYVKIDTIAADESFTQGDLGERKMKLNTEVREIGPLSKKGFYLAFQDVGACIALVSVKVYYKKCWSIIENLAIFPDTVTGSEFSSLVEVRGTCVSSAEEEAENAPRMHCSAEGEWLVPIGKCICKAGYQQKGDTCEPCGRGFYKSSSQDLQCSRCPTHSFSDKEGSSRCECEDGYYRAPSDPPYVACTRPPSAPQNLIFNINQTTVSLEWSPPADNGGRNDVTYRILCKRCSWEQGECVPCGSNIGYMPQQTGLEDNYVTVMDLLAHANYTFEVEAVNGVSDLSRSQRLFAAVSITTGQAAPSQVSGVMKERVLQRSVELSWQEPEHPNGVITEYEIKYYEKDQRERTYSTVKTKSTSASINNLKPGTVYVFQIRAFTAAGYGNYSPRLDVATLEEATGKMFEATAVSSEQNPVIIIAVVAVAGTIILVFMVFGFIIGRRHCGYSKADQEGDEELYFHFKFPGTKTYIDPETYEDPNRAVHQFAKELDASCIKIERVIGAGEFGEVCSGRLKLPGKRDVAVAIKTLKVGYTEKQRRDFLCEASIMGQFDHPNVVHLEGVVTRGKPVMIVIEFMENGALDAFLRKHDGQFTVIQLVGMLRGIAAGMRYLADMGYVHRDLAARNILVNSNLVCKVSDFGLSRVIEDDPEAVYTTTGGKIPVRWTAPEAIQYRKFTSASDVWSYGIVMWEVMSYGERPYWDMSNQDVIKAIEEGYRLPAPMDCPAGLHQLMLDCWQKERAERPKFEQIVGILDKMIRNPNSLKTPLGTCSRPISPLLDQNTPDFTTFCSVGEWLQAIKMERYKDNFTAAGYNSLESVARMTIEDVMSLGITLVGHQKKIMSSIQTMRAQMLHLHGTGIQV

[3] = biological target: Receptor tyrosine-protein kinase erbB-3 (Homo sapiens) (UniProt P21860); experiment: Inhibition of ERBB3 (unknown origin) assessed as remaining activity at 1 uM by Kinome scan method relative to control
[4] = biological target: Glycogen synthase kinase-3 alpha (Homo sapiens) (UniProt P49840); experiment: Inhibition of GSK3alpha (unknown origin) assessed as remaining activity at 1 uM by Kinome scan method relative to control
[5] = biological target: Homeodomain-interacting protein kinase 2 (Homo sapiens) (UniProt Q9H2X6); experiment: Inhibition of HIPK2 (unknown origin) assessed as remaining activity at 1 uM by Kinome scan method relative to control
[6] = biological target: Tyrosine-protein kinase JAK1 (Homo sapiens) (UniProt P23458); experiment: Inhibition of JAK1 JH2 domain (unknown origin) assessed as remaining activity at 1 uM by Kinome scan method relative to control
[7] = biological target: Tyrosine-protein kinase Lck (Homo sapiens) (UniProt P06239); experiment: Inhibition of LCK (unknown origin) assessed as remaining activity at 1 uM by Kinome scan method relative to control
[8] = biological target: Mitogen-activated protein kinase kinase kinase 2 (Homo sapiens) (UniProt Q9Y2U5); experiment: Inhibition of MAP3K2 (unknown origin) assessed as remaining activity at 1 uM by Kinome scan method relative to control
[9] = system: Hepatocyte growth factor receptor (Homo sapiens), P08581 [Y1235D]; experiment: Inhibition of MET Y1235D mutant (unknown origin) assessed as remaining activity at 1 uM by Kinome scan method relative to control
[10] = biological target: Serine/threonine-protein kinase Nek9 (Homo sapiens) (UniProt Q8TD19); experiment: Inhibition of NEK9 (unknown origin) assessed as remaining activity at 1 uM by Kinome scan method relative to control
[11] = biological target: Platelet-derived growth factor receptor beta (Homo sapiens) (UniProt P09619); experiment: Inhibition of PDGFRbeta (unknown origin) assessed as remaining activity at 1 uM by Kinome scan method relative to control
Platelet-derived growth factor receptor beta (Homo sapiens), sequence (P09619 whole entry): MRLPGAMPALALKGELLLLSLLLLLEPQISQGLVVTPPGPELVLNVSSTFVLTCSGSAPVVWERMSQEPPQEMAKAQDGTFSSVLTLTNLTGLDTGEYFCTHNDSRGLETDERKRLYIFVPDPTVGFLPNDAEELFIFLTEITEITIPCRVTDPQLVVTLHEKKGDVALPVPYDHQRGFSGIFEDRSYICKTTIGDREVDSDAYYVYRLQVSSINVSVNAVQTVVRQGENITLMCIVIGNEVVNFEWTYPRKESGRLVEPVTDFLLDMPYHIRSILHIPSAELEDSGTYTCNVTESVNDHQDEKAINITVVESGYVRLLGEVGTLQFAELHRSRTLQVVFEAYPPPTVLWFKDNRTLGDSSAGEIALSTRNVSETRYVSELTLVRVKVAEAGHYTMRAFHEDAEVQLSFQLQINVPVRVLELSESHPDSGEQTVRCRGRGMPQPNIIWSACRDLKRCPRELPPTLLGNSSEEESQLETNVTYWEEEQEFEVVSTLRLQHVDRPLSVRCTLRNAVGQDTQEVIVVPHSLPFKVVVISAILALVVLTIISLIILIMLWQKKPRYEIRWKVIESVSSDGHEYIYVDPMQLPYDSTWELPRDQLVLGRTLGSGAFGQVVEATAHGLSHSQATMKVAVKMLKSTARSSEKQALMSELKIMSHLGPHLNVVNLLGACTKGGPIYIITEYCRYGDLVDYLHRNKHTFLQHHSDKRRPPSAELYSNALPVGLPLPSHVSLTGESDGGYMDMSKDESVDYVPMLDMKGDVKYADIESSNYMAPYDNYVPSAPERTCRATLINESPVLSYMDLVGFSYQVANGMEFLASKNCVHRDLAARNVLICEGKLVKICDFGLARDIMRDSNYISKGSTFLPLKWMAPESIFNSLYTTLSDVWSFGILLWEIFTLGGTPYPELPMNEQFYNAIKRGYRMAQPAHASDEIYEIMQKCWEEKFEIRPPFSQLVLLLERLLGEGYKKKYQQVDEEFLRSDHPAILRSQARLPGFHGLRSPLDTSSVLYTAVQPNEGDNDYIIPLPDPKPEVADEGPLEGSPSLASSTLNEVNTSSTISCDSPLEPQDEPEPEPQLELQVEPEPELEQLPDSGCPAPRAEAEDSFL

[12] = biological target: Dual specificity protein kinase TTK (Homo sapiens) (UniProt P33981); experiment: Inhibition of TTK (unknown origin) assessed as remaining activity at 1 uM by Kinome scan method relative to control
[13] = system: Tyrosine-protein kinase ABL1 (Homo sapiens), P00519 [T315I]; experiment: Inhibition of human ABL1 T315I mutant assessed as residual activity at 1 uM using Poly(Ala,Glu,Lys,Tyr)6:2:5:1 as substrate in presence of 33P-ATP by ProQinase assay relative to control
[14] = biological target: Tyrosine-protein kinase ABL1 (Homo sapiens) (UniProt P00519); experiment: Inhibition of human ABL1 assessed as residual activity at 1 uM using poly(Ala,Glu,Lys,Tyr)6:2:5:1 as substrate in presence of 33P-ATP by ProQinase assay relative to control
[15] = biological target: Tyrosine-protein kinase ABL2 (Homo sapiens) (UniProt P42684); experiment: Inhibition of human ABL2 assessed as residual activity at 1 uM using Poly(Ala,Glu,Lys,Tyr)6:2:5:1 as substrate in presence of 33P-ATP by ProQinase assay relative to control
Tyrosine-protein kinase ABL2 (Homo sapiens), sequence (P42684 whole entry): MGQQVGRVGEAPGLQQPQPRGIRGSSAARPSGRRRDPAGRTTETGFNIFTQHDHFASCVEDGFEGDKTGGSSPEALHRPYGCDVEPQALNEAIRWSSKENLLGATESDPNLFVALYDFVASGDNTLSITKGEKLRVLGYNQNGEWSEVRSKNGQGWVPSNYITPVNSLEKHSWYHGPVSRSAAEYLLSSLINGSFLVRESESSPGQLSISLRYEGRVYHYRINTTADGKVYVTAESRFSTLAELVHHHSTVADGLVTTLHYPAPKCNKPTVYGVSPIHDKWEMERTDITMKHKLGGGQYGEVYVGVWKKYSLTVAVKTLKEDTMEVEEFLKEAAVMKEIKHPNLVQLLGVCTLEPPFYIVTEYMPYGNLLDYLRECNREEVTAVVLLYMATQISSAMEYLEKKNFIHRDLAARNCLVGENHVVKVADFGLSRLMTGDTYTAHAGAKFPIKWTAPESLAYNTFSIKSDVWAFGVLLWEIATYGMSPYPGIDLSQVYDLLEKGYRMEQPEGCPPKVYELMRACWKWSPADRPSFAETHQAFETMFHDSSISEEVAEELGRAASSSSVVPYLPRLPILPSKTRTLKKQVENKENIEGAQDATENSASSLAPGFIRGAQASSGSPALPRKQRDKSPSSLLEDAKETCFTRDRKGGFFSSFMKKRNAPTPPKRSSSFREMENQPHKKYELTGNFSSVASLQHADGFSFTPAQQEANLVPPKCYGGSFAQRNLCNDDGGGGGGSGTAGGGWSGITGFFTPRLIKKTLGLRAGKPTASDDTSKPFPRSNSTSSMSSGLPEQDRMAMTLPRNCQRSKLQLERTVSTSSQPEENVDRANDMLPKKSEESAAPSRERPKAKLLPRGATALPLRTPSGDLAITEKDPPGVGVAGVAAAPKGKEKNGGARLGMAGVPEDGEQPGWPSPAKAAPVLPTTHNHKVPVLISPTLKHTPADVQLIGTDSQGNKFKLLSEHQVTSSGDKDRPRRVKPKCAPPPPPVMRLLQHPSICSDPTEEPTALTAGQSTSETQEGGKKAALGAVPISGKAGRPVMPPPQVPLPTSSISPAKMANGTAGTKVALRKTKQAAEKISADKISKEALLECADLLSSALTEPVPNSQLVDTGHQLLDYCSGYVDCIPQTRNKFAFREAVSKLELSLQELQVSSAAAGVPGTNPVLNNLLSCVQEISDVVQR

[16] = biological target: Bone morphogenetic protein receptor type-1A (Homo sapiens) (UniProt P36894); experiment: Inhibition of human BMPR1A assessed as residual activity at 1 uM using casein as substrate in presence of 33P-ATP by ProQinase assay relative to control
Bone morphogenetic protein receptor type-1A (Homo sapiens), sequence (P36894 whole entry): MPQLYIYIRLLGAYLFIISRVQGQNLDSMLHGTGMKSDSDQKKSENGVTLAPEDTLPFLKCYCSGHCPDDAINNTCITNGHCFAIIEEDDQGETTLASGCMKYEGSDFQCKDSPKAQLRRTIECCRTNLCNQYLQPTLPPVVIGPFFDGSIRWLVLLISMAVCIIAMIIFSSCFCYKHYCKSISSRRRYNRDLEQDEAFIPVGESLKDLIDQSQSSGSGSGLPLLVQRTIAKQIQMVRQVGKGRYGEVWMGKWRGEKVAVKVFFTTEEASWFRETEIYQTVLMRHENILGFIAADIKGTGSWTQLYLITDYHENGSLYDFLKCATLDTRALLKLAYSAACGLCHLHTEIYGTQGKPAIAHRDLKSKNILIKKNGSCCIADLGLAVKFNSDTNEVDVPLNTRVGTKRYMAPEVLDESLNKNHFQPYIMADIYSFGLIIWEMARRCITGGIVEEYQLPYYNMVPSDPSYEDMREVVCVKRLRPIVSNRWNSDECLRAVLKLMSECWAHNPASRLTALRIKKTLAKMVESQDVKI

[17] = biological target: CDK9/Cyclin K (Homo sapiens) (UniProt P50750+O75909); experiment: Inhibition of human CDK9/CycK assessed as residual activity at 1 uM using RBER-CHKtide as substrate in presence of 33P-ATP by ProQinase assay relative to control; type: protein-complex assay
[18] = biological target: Dual specificity protein kinase CLK1 (Homo sapiens) (UniProt P49759); experiment: Inhibition of human CLK1 assessed as residual activity at 1 uM using autophos as substrate in presence of 33P-ATP by ProQinase assay relative to control
[19] = biological target: Discoidin domain-containing receptor 2 (Homo sapiens) (UniProt Q16832); experiment: Inhibition of human DDR2 assessed as residual activity at 1 uM using poly(Ala,Glu,Lys,Tyr)6:2:5:1 as substrate in presence of 33P-ATP by ProQinase assay relative to control
[20] = biological target: Ephrin type-B receptor 1 (Homo sapiens) (UniProt P54762); experiment: Inhibition of human EPHB1 assessed as residual activity at 1 uM using polyEY as substrate in presence of 33P-ATP by ProQinase assay relative to control
[21] = biological target: Mitogen-activated protein kinase 1 (Homo sapiens) (UniProt P28482); experiment: Inhibition of human ERK2 assessed as residual activity at 1 uM using RBER-CHKtide as substrate in presence of 33P-ATP by ProQinase assay relative to control
[22] = biological target: Serine/threonine-protein kinase 3 (Homo sapiens) (UniProt Q13188); experiment: Inhibition of human MST2 assessed as residual activity at 1 uM using RB-CTF as substrate in presence of 33P-ATP by ProQinase assay relative to control
Serine/threonine-protein kinase 3 (Homo sapiens), sequence (Q13188 whole entry): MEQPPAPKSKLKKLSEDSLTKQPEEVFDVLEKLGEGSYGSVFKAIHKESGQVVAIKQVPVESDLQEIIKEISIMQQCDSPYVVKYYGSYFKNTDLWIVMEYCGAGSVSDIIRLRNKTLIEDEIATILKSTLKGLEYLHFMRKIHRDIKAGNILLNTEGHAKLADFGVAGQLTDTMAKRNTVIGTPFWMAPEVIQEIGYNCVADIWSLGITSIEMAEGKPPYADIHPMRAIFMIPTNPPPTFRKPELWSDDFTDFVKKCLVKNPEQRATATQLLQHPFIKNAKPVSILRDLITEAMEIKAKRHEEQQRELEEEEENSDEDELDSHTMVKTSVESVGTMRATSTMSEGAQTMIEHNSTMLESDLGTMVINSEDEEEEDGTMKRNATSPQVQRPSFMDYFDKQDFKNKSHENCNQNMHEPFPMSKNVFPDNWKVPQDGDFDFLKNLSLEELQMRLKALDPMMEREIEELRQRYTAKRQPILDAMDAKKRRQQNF

[23] = biological target: Protein kinase C beta type (Homo sapiens) (UniProt P05771); experiment: Inhibition of human PKCbeta2 assessed as residual activity at 1 uM using 3xChocktide-PKC as substrate in presence of 33P-ATP by ProQinase assay relative to control
[24] = biological target: cAMP-dependent protein kinase catalytic subunit PRKX (Homo sapiens) (UniProt P51817); experiment: Inhibition of human PRKX assessed as residual activity at 1 uM using RBER-GSK3(14-27) as substrate in presence of 33P-ATP by ProQinase assay relative to control
[25] = biological target: Serine/threonine-protein kinase Sgk2 (Homo sapiens) (UniProt Q9HBY8); experiment: Inhibition of human SGK2 assessed as residual activity at 1 uM using RBER-GSK3(14-27) as substrate in presence of 33P-ATP by ProQinase assay relative to control
[26] = biological target: Serine/threonine-protein kinase SIK2 (Homo sapiens) (UniProt Q9H0K1); experiment: Inhibition of human SNF1LK2 assessed as residual activity at 1 uM using RBER-CHKtide as substrate in presence of 33P-ATP by ProQinase assay relative to control
[27] = Anti-inflammatory activity against human derived medium respond PBMC cells assessed as inhibition in stimulated MCP-1 chemokine release incubated for 2 hrs in the presence of LPS/SEB/aCD28 by Luminex based sandwich immunoassay; type: functional, cell-based
[28] = Anti-inflammatory activity against human derived medium respond PBMC cells assessed as inhibition in stimulated IP-10 chemokine release incubated for 2 hrs in the presence of LPS/SEB/aCD28 by Luminex based sandwich immunoassay; type: functional, cell-based

Dual specificity tyrosine-phosphorylation-regulated kinase 1B (Homo sapiens), sequence (Q9Y463 whole entry, looked up): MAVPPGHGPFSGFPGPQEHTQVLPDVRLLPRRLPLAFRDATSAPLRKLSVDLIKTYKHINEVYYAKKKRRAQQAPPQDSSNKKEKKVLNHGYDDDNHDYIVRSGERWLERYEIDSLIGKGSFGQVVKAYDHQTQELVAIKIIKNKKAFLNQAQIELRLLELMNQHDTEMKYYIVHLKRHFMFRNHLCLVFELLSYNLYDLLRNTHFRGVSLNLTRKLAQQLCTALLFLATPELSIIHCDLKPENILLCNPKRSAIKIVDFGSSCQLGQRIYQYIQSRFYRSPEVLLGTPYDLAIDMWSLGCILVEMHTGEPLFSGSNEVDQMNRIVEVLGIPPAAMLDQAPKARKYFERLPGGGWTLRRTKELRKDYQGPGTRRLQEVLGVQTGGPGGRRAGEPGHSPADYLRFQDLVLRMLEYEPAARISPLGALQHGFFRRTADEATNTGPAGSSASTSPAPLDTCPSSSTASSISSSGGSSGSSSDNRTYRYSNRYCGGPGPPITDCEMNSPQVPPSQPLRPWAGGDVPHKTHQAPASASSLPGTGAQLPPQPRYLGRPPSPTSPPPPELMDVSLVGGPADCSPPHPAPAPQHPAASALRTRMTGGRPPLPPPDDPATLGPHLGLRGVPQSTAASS

Q: Which Activity [1] does the source give for `O=C1c2ccc(Nc3ccc(F)cc3F)cc2CCc2ccc(OC[C@H](O)CO)cc21` [Skepinone-L] here?
A: Its Activity is 82%.

Q: What about the Activity [2] of the same compound?
A: The Activity was 89%.

Q: And the Activity [3]?
A: The Activity was 100%.

Q: What about the Activity [4] of the same compound?
A: The Activity was 100%.

Q: And the Activity [5]?
A: Its Activity is 100%.

Q: And the Activity [6]?
A: Its Activity is 86%.

Q: And the Activity [7]?
A: Its Activity is 100%.

Q: What about the Activity [8] of the same compound?
A: Its Activity is 100%.

Q: What about the Activity [9] of the same compound?
A: Its Activity is 97%.

Q: And the Activity [10]?
A: Its Activity is 89%.

Q: And the Activity [11]?
A: Its Activity is 87%.

Q: And the Activity [12]?
A: Its Activity is 100%.

Q: What about the Activity [13] of the same compound?
A: The Activity was 93%.

Q: And the Activity [14]?
A: The Activity was 95%.

Q: What about the Activity [15] of the same compound?
A: Its Activity is 99%.

Q: What about the Activity [16] of the same compound?
A: The Activity was 100%.

Q: What about the Activity [17] of the same compound?
A: Its Activity is 92%.

Q: What about the Activity [18] of the same compound?
A: The Activity was 106%.

Q: What about the Activity [19] of the same compound?
A: Its Activity is 102%.

Q: And the Activity [20]?
A: Its Activity is 116%.

Q: And the Activity [21]?
A: The Activity was 83%.

Q: And the Activity [22]?
A: The Activity was 83%.

Q: What about the Activity [23] of the same compound?
A: Its Activity is 97%.

Q: And the Activity [24]?
A: Its Activity is 79%.

Q: What about the Activity [25] of the same compound?
A: Its Activity is 89%.

Q: And the Activity [26]?
A: Its Activity is 86%.

Q: What about the pIC50 [27] of the same compound?
A: The pIC50 was 7.05.

Q: And the pIC50 [28]?
A: Its pIC50 is 5.23.
